Data set [1] in a line: Gel filtration of LPS, BacSp222 and complexes. Type of data set: physicochemical. How it is done:
Gel filtration was conducted on a Superdex 200 Increase 10/300 GL (Cytiva, Marlborough, MA, USA) column using an UltiMate 3000 HPLC apparatus (Thermo, Waltham, MA, USA). The separations were performed at room temperature in 50 mM NH4COOH pH 5.8 at a flow rate of 0.6 mL/min. The spectrophotometric detection was conducted at 215 and 280 nm, and before separations, the column was calibrated using tryptophan (204 Da), […] (75 kDa), aldolase (158 kDa), ferritin (440 kDa), and Blue Dextran 2000 (2 MDa). The following samples were separated: (1) 375 μg of LPS O55:B5 (IEC), (2) 375 μg of LPS O111:B4 (PE), (3) 75 μg of BacSp222, (4) 375 μg of LPS O55:B5 (IEC) + 75 μg BacSp222, and (5) 375 μg of LPS O111:B4 (PE) + 75 μg BacSp222. All above solutions were prepared in phosphate-buffered saline (PBS) without Ca^2+ and Mg^2+ (Gibco, Paisley, UK) and were preincubated before separation for 15 min at 37 °C. The fractions containing LPS O55:B5 alone and LPS-BacSp222 complex, visible as peaks eluting at 12.5–14 min and 12.5–16 min, both marked by arrows in Figure , were manually collected, freeze-dried, and subjected to sodium dodecyl sulfate polyacrylamide gel electrophoresis (SDS-PAGE) under reducing conditions. […]
(In gel filtration, larger molecules generally elute earlier.)

In the next data set the test system is FPR2. On the set-up: method as in number not given. The note with it: ref number not given; cited from earlier work.

Ends that are not written are not given here. * marks the point of attachment. For = O=C*

As to “For-MAGLLRFLLSKGRALYNWAKSHVGKVWEWLKSGATYEQIKEWIENALGWR [BacSp222]”, in data set [1] (375 μg LPS + 75 μg BacSp222, 15 min, 37 °C, peptide referred to as "the bacteriocin"), the “BacSp222 peak at 36 min after incubation with LPS” value is recorded as “disappears completely”. In data set [1] (peak at 36 min, Superdex 200 Increase, 50 mM NH4COOH pH 5.8, 0.6 mL/min, 215 nm, room temperature), the “apparent molecular mass, gel filtration (peptide peak)” value is listed as 5.5 kDa. The “activation of FPR2” value with FPR2 is reported as “cannot activate”.

(Values after paper PMC12340957, “Interactions between Lipopolysaccharide and Peptide Bacteriocin BacSp222 Influence Their Biological Activities” (ACS Infectious Diseases, 2025).)
